Laboratory results taken from ChEMBL document CHEMBL1201862, “PubChem BioAssay data set” (2004).
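All cell lines were grown in 96-well plates and treated with compound for 48 hours. The concentration for 50% growth inhibition is given as GI50.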 Calls of active or inactive are those of the source. Cut-off read from the data, not from the text of the source: active = GI50 up to about 1.1 µM and inactive = higher.

Experiments:
Test in all cases: inhibition of tumour cell growth, NCI panel, 48 h
Hs-578T = system: Hs-578T
UACC-257 = system: UACC-257
SW-620 = system: SW-620
SK-OV-3 = system: SK-OV-3
TK-10 = system: TK-10
HCC 2998 = system: HCC 2998
NCI-H460 = system: NCI-H460
K562 = system: K562
BT-549 = system: BT-549
A549 = system: A549
A498 = system: A498
T47D = system: T47D
MCF7 = system: MCF7
COLO 205 = system: COLO 205
HT-29 = system: HT-29
HL-60 = system: HL-60
KM12 = system: KM12
HCT-15 = system: HCT-15
UACC-62 = system: UACC-62
CCRF-CEM = system: CCRF-CEM
MOLT-4 = system: MOLT-4
HCT-116 = system: HCT-116
HOP-92 = system: HOP-92
HOP-62 = system: HOP-62
OVCAR-8 = system: OVCAR-8
MDA-MB-435 = system: MDA-MB-435
SK-MEL-5 = system: SK-MEL-5
NCI-H226 = system: NCI-H226
SNB-75 = system: SNB-75
IGROV-1 = system: IGROV-1
EKVX = system: EKVX
Malme-3M = system: Malme-3M
NCI/ADR-RES = system: NCI/ADR-RES
RXF 393 = system: RXF 393
PC-3 = system: PC-3
CAKI-1 = system: CAKI-1
ACHN = system: ACHN
SF-295 = system: SF-295
SNB-19 = system: SNB-19
RPMI-8226 = system: RPMI-8226
M14 = system: M14
MDA-N = system: MDA-N
SR = system: SR
OVCAR-5 = system: OVCAR-5
786-0 = system: 786-0
NCI-H23 = system: NCI-H23
SF-539 = system: SF-539
SK-MEL-2 = system: SK-MEL-2
SF-268 = system: SF-268
DU-145 = system: DU-145
UO-31 = system: UO-31
LOX IMVI = system: LOX IMVI
OVCAR-3 = system: OVCAR-3
MDA-MB-231 = system: MDA-MB-231
SK-MEL-28 = system: SK-MEL-28
U-251 = system: U-251
SN12C = system: SN12C
OVCAR-4 = system: OVCAR-4
NCI-H522 = system: NCI-H522

Measured: GI50

CCOC(=O)CCC(NC(=O)c1ccc(Nc2nc3ccccc3nc2-c2cccs2)cc1)C(=O)OCC (stereo not given)
21.9 µM: HCT-15
inactive: Hs-578T 23 µM | UACC-257 29.2 µM | SW-620 33.8 µM | SK-OV-3 28.6 µM | TK-10 21.2 µM | HCC 2998 33.9 µM | NCI-H460 25.1 µM | K562 12.1 µM | BT-549 23.6 µM | A549 63.2 µM | A498 21.7 µM | T47D 12 µM | MCF7 26.9 µM | COLO 205 25.2 µM | HT-29 25.6 µM | HL-60 5.21 µM | KM12 24.6 µM | UACC-62 23.7 µM | CCRF-CEM 11.4 µM | MOLT-4 7.98 µM | HCT-116 28.4 µM | HOP-92 29.8 µM | HOP-62 > 100 µM | OVCAR-8 20.8 µM | MDA-MB-435 30.2 µM | SK-MEL-5 15.2 µM | NCI-H226 26.6 µM | SNB-75 36.3 µM | IGROV-1 28 µM | EKVX 31.6 µM | Malme-3M 24.1 µM | NCI/ADR-RES 21.3 µM | RXF 393 87.3 µM | PC-3 38.5 µM | CAKI-1 29.8 µM | ACHN 31 µM | SF-295 19.4 µM | SNB-19 29.2 µM | RPMI-8226 7.53 µM | M14 > 100 µM | MDA-N 20.6 µM | SR 11.8 µM | OVCAR-5 > 100 µM | 786-0 32.4 µM | NCI-H23 32.3 µM | SF-539 32.7 µM | SK-MEL-2 31.2 µM | SF-268 27.1 µM | DU-145 29.8 µM | UO-31 30.9 µM | LOX IMVI 23.1 µM | OVCAR-3 > 100 µM | MDA-MB-231 27.3 µM | SK-MEL-28 26.3 µM | U-251 27.4 µM | SN12C 22.1 µM | OVCAR-4 23.9 µM

CC(C)(C)[Si](C)(C)OCC1OC(n2cc(F)c(=O)[nH]c2=O)CC1O[Si](C)(C)C(C)(C)C (stereo not given)
7.24 µM: HCT-15
inactive: Hs-578T 11.1 µM | UACC-257 4.02 µM | SW-620 9.93 µM | SK-OV-3 14 µM | TK-10 2.84 µM | HCC 2998 1.72 µM | NCI-H460 2.4 µM | K562 4.14 µM | BT-549 5.43 µM | A549 10.5 µM | A498 6.87 µM | MCF7 5.01 µM | COLO 205 4.25 µM | HT-29 7.19 µM | HL-60 3.78 µM | KM12 4.19 µM | UACC-62 5.14 µM | CCRF-CEM 4.17 µM | MOLT-4 3.98 µM | HCT-116 7.66 µM | HOP-62 13.2 µM | OVCAR-8 16.1 µM | MDA-MB-435 12 µM | SK-MEL-5 3.27 µM | NCI-H226 19.4 µM | SNB-75 4.03 µM | IGROV-1 6.71 µM | EKVX 8.04 µM | Malme-3M 16.4 µM | NCI/ADR-RES 16 µM | RXF 393 4.42 µM | PC-3 3.16 µM | CAKI-1 12.5 µM | ACHN 10.1 µM | SF-295 6.97 µM | SNB-19 12.4 µM | RPMI-8226 3.5 µM | M14 13.3 µM | MDA-N 6.21 µM | SR 3.1 µM | OVCAR-5 17 µM | NCI-H522 3.29 µM | 786-0 8.63 µM | NCI-H23 6.53 µM | SF-539 13.6 µM | SK-MEL-2 12.1 µM | SF-268 14.5 µM | DU-145 3.46 µM | UO-31 10.8 µM | LOX IMVI 5.79 µM | OVCAR-3 15.2 µM | MDA-MB-231 7.5 µM | U-251 8.65 µM | SN12C 2.89 µM | OVCAR-4 6.46 µM
active: T47D 1.11 µM
